{"source": "patent US12168003B2", "about": "“Selective inhibition of T follicular helper cells for treatment of autoimmune disorders” (priority 2019, dated 2024)", "key": {"TH1 and TH17 cells": {"tested_on": "TH1 and TH17 cells", "assay": "S. aureus sub-dermal ear pinnae infection model", "assay_type": "in vivo, mouse", "protocol": "S. aureus subspecies Rosenbach (ATCC 25923) was grown overnight in TSB broth (Corning). Following quantification, 1×10^8 CFU of S. aureus in 100 μL were injected subdermal in the base of the ear pinnae. On days 0 through 7, mice were treated daily with i.p. 25 mg/kg 4EGI-1 or vehicle. On day 8, mice were euthanized and the whole infected ear was collected along with the cervical lymph node (CLN) and blood. Blood was allowed to clot at room temperature, spun at 2,000×g for 30 minutes, and serum was collected and frozen until analysis. Ear thickness was measured with a digital caliper on day 8.\nSpleens, draining lymph nodes, and brains were dissociated with the plunger-end of a syringe and passed through a 70 μm nylon filter. Splenocytes were subject to RBC lysis with ACK (Ammonium-Chloride-Potassium). Ears were subject to mechanical dissociation with scissors prior to incubation in 1 mL PBS in a 48-well plate with 100 μg/mL Liberase TL and 20 μg/mL DNase I for 1.5 hours at 37° C. Following incubation, cells were further dissociated by passing through a syringe, quenched with PBS+2% FCS, and filtered through a 70 μm nylon filter. Lungs were mechanically dissociated with a razor blade and incubated in a 6 cm dish with 5 mLs RPMI containing 250 μg/mL collagenase, 50 μg/mL Liberase TL, 1 mg/mL hyaluronidase, and 200 μg/mL DNase I for 30 minutes. Following incubation, cells quenched with PBS+2% FCS, and filtered through a 70 μm nylon filter. Ear and lung cells were subject to lymphocyte isolation using a gradient (Lymphocyte Separation Medium; Cellgro). Vertebral columns were flushed with PBS through a 19-gauge needle to remove intact spinal cords. Spinal cords were subject to mechanical dissociation with scissors and incubation in 1 mL PBS with 200 μg/mL DNase I and 50 μg/mL Liberase TL for 30 minutes at 37° C. Following incubation, cells were quenched with PBS+2% FCS and filtered through a 70 μm nylon filter.\nSingle cell suspensions of noted tissues were resuspended in T cell media with 1× PMA/Ionomycin (cell activation cocktail; BioLegend®) and 1× brefeldin A (BioLegend®) for 5-6 hours at 37° C. Following stimulation, cells were incubated with a live/dead viability marker and extracellular stain prior to fix and permeabilization with Fixation/Permeabilization Solution kit (BD Biosciences) according to manufacturer's instructions to detect intracellular cytokines IL-17A, IFN-γ, or IL-13. Concentration and clones of flow cytometry antibodies used for staining detailed in Table 2.\nFor quantification of OVA-specific IgG1, high-binding 96-well plates (Costar) were coated with 10 μg/mL OVA protein. For S. aureus-specific IgG1, plates were coated with heat-killed S. aureus (heat-killed at 80° C. for 30 min). For total IgE, plates were coated with 2 μg/mL rat anti-mouse IgE (Southern Biotech). Following overnight incubation at 4° C., plates were blocked with 1% BSA for 30 min at 37° C. After blocking, serum (diluted 1/20 initially then 1/2 down the plate) was incubated at 37° C. for 2 hours, plates were washed 3 times in PBS and then incubated with 1:1000 anti-mouse IgG1-HRP (Southern Biotech) or anti-mouse IgE-HRP (Southern Biotech) for 1 hour at 37° C. Plates were washed 3 times in PBS and incubated with TMB substrate. Following development, TMB Stop Solution (BioLegend®) was added and plates were read at […]."}, "[1]": {"tested_on": "human lymph node CD4+ CD45RO+ T cells", "assay": "In vitro treatment of human lymph node cells with 4EGI-1", "assay_type": "cell-based", "conditions": "4EGI-1 overnight, three patients", "protocol": "Discarded, deidentified, reactive, but non-malignant human lymph node single cell suspensions were obtained. Presence of TFH cells was confirmed by identification of CD4^+ CD45RO^+ T cells that are PD1^+ CXCR5^+ BCL6^+ and ICOS^+. Lymph node suspensions were incubated overnight at 37° C. in X-VIVO media (Lonza) containing 5% human AB serum (Sigma) and Glutamax with 0-25 μM 4EGI-1. Cells were then stained with a live/dead viability marker and then for extracellular expression of human CD4, CD45RO, CXCR5, PD-1, or ICOS or intranuclear expression of BCL6. Expression of markers was normalized to % of control (0 μM 4EGI-1) to allow for combined statistical analysis of all 3 patients. Antibody clones and dilutions used to identify these populations are detailed in Table 2."}, "[2]": {"tested_on": "TH17-differentiated 2D2 T cells", "assay": "Passive EAE with TH17-differentiated 2D2 T cells pre-treated with 4EGI-1", "assay_type": "in vivo, mouse", "conditions": "2D2 T cells pre-treated with 20 μM 4EGI-1 for 1 h in vitro", "protocol": "TH17 2D2 T cells were removed from activation and treated with vehicle or 20 μM 4EGI-1 for 1 h at 37° C. in vitro prior to transfer of 9.3×10^6 2 D2 T cells i.p. per recipient. Mice were given 200 ng pertussis toxin i.p. […] following T cell injection. Animals were monitored daily for 35 days and scored on a scale of 0-5 as described above. At day 35, TFH-like (ICOS^high) Vα3.2 cells were identified from the spinal cord."}, "pre-existing TFH cells": {"tested_on": "pre-existing TFH cells", "conditions": "75 mg/kg, mice (Sekiyama et al.); cited from earlier work"}}}
{"smiles": "O=C(O)C(Cc1ccccc1[N+](=O)[O-])=NNc1nc(-c2ccc(Cl)c(Cl)c2)cs1", "note": "(mixture of isomers) [4EGI-1]", "values": [{"measurement": "differentiation or effector function of TH1 cells (T-bet+ or IFN-γ+) in the skin", "setting": "TH1 and TH17 cells; 25 mg/kg daily i.p., day 8", "result": "no effect"}, {"measurement": "differentiation or effector function of TH17 cells (RORγT+ or IL17A+) in the skin", "setting": "TH1 and TH17 cells; 25 mg/kg daily i.p., day 8", "result": "no effect"}, {"measurement": "general skin inflammation (ear thickness and skin neutrophil levels)", "setting": "TH1 and TH17 cells; 25 mg/kg daily i.p., day 8", "result": "no effect"}, {"measurement": "formation of GC B cells in draining lymph nodes", "setting": "TH1 and TH17 cells; cervical lymph nodes, day 8", "result": "strongly reduced"}, {"measurement": "formation of TFH cells in draining lymph nodes", "setting": "TH1 and TH17 cells; cervical lymph nodes, day 8", "result": "strongly reduced"}, {"measurement": "secretion of class-switched immunoglobulins", "setting": "TH1 and TH17 cells; serum S. aureus-specific IgG1, day 8", "result": "strongly reduced"}, {"measurement": "levels of BCL6 protein", "setting": "[1]; 0-30 μM / 0-25 μM", "result": "rapidly reduced"}, {"measurement": "cell viability", "setting": "[1]", "result": "no effect"}, {"measurement": "TFH-like 2D2 T cells (ICOShigh) in the spinal cord", "setting": "[2]", "result": "reduced by half"}, {"measurement": "development of passive EAE disease in recipient mice", "setting": "[2]", "result": "did not develop disease"}, {"measurement": "safety of the dose", "setting": "pre-existing TFH cells", "result": "within its safety range"}]}
